Molecular target: T1, aldosterone synthase (Homo sapiens, UniProt P19099)
T1 construct: synthesized in the adrenal cortex by aldosterone synthase; endogenous in cells; host or cells: adrenal cortex of healthy human subjects (in vivo, oral dosing)
T1 sequence (P19099 25-503): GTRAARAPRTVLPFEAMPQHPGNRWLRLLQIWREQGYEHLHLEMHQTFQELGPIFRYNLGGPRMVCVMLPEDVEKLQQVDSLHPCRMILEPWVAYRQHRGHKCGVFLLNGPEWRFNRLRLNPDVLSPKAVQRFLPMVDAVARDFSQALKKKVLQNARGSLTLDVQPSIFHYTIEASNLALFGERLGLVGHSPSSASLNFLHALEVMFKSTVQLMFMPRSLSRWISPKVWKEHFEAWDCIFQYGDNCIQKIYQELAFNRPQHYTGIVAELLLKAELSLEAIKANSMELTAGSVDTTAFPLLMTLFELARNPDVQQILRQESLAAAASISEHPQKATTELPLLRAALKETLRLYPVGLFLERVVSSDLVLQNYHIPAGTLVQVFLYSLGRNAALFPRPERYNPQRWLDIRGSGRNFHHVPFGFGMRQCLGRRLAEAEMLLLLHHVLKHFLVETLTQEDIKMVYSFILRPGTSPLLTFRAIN
Assay: SAD study: plasma and urine aldosterone and precursors (Cortrosyn challenge, standing, normal and low salt diet)
Format: in vivo
Conditions: normal salt diet, low salt diet conditions
Procedure: Single doses of (R)-compound 1 reduced plasma and urine aldosterone levels by approximately 85% to 90% in a dose-dependent manner, consistently reaching a maximum effect at a dose of 10 mg (R)-compound 1 under the different conditions tested (Cortrosyn® challenge, standing, normal salt diet, and low salt diet conditions). No change in plasma cortisol levels was apparent across the full dose range tested (0 to 360 mg (R)-compound 1).
A maximum effect on aldosterone reduction was consistently achieved at a dose of 10 mg under the different conditions tested in healthy subjects (Cortrosyn® challenge, standing, normal salt diet, and low salt diet conditions). No change in plasma cortisol levels after the Cortrosyn challenge was apparent across the full dose range tested (0 to 360 mg of (R)-compound 1).
(R)-compound 1 induced a dose-dependent blunting of plasma aldosterone levels as compared to Day −1 baseline and as compared to placebo, with a maximum effect achieved at the 10 mg dose level (approximate 85% to 90% decrease as compared to Day −1). This effect was observed both on the post-Cortrosyn challenge readout (time interval 0 to 4 hours), and on the standing aldosterone peak (time interval 4 to 12 hours) (See FIG. 10).
Notes: Plasma aldosterone levels that were Below limit of quantification were set to the lower limit of quantitation value (5 pg/mL) to allow further calculation. […]

For CCC(=O)N[C@@H]1CCCc2c(-c3ccc4c(c3)CCC(=O)N4C)cncc21 [(R)-Compound 1, (R)—N-(4-(1-methyl-2-oxo-1,2,3,4-tetrahydroquinolin-6-yl)-5,6,7,8-tetrahydroisoquinolin-8-yl)propionamide], the “dose at which maximum effect on aldosterone reduction reached” value was 10 mg.

From patent publication US20240277698A1, “METHODS OF USING ALDOSTERONE SYNTHASE INHIBITORS” (CINCOR PHARMA, INC., priority 2021, published 2024)
